# Test results taken from patent US20120202876A1, “METHODS OF TREATING DISEASES WITH PROANTHOCYANIDIN OLIGOMERS SUCH AS CROFELEMER” (NAPO PHARMACEUTICALS, INC., priority 2009, published 2012).
# Target: T1, human CFTR (Homo sapiens, UniProt P13569)
# T1 construct: expressed in transfected cells
# Experiment: Apical membrane Cl− current in CFTR-expressing FRT cells
# Format: cell-based
# Settings: for inhibition of CFTR after crofelemer pre-treatment: 50 μM crofelemer added first; for IC50 in absence versus presence of crofelemer: 50 μM crofelemer pre-added
# Description: CFTR Cl^− current was measured in CFTR-expressing FRT cells in which the basolateral membrane was permeabilized by amphotericin B and a transepithelial Cl^− gradient was applied. Under these conditions, the measured current provides a direct quantitative measure of CFTR Cl^− conductance.
# Measurements were done to investigate whether the Crofelemer inhibition potency depended on the CFTR activation mechanism. […] The reversibility of crofelemer inhibition of CFTR was investigated, since washout during secretory diarrhea is a concern in the use of a non-absorbable antisecretory agent. […] Following extensive washing, residual CFTR inhibition was determined from the current after re-stimulation by CPT-cAMP.
# Comparisons of CFTR inhibition in the absence and presence of pre-added crofelemer tested the possibility that the site of action of crofelemer on CFTR might overlap with that of the small-molecule thiazolidinone and glycine hydrazide CFTR inhibitors.
# FRT cells expressing human TMEM16A (cDNA provided by Dr. Luis Galietta, Gaslini Institute, Genoa, Italy) were generated similarly. FRT cells were cultured in F-12 Modified Coon's Medium (Sigma) supplemented with 10% fetal bovine serum (Hyclone), 2 mM glutamine, 100 units/ml penicillin, 100 μg/ml streptomycin, 350 μg/ml hygromycin and 500 μg/ml geneticin. […] T84 cells were cultured in DMEM/Ham's F-12 (1:1) medium containing 10% FBS, 100 units/ml penicillin and 100 μg/ml streptomycin.
# FRT cells (stably expressing CFTR or TMEM16A) were cultured on Snapwell filters until confluence (transepithelial resistance >500 ohm.cm). Short-circuit current was measured in Ussing chambers (Vertical diffusion chamber; Costar) with Ringer's solution bathing the basolateral surface and half-Ringer's bathing the apical surface. Ringer's solution contained: 130 mM NaCl, 2.7 mM KCl, 1.5 mM KH2PO4, 1 mM CaCl2, 0.5 mM MgCl2, 10 mM Na-HEPES, 10 mM glucose, pH 7.3. Half-Ringer's solution was the same, except that 65 mM NaCl was replaced with Na gluconate, and CaCl2 was increased to 2 mM. […] Chambers were bubbled continuously with air. For T84 cells and bronchial epithelial cells, cells were bathed in symmetrical HCO3—buffered solution containing (in mM): 120 NaCl, 5 KCl, 1 MgCl2, 1 CaCl2, 10 D-glucose, 5 HEPES, and 25 NaHCO3 (pH 7.4), and aerated with 5% CO2 at 37° C. For the measurement of apical K+ conductance in T84 cells, NaHCO3 and NaCl were replaced with Na gluconate, and Na gluconate in basolateral solution was replaced with K gluconate and bubbled with air. The basolateral membrane was permeabilized with 20 μM amphotericin B. Short-circuit current was measured using a DVC-1000 voltage-clamp apparatus (World Precision Instruments).
# T1 sequence (P13569 whole entry): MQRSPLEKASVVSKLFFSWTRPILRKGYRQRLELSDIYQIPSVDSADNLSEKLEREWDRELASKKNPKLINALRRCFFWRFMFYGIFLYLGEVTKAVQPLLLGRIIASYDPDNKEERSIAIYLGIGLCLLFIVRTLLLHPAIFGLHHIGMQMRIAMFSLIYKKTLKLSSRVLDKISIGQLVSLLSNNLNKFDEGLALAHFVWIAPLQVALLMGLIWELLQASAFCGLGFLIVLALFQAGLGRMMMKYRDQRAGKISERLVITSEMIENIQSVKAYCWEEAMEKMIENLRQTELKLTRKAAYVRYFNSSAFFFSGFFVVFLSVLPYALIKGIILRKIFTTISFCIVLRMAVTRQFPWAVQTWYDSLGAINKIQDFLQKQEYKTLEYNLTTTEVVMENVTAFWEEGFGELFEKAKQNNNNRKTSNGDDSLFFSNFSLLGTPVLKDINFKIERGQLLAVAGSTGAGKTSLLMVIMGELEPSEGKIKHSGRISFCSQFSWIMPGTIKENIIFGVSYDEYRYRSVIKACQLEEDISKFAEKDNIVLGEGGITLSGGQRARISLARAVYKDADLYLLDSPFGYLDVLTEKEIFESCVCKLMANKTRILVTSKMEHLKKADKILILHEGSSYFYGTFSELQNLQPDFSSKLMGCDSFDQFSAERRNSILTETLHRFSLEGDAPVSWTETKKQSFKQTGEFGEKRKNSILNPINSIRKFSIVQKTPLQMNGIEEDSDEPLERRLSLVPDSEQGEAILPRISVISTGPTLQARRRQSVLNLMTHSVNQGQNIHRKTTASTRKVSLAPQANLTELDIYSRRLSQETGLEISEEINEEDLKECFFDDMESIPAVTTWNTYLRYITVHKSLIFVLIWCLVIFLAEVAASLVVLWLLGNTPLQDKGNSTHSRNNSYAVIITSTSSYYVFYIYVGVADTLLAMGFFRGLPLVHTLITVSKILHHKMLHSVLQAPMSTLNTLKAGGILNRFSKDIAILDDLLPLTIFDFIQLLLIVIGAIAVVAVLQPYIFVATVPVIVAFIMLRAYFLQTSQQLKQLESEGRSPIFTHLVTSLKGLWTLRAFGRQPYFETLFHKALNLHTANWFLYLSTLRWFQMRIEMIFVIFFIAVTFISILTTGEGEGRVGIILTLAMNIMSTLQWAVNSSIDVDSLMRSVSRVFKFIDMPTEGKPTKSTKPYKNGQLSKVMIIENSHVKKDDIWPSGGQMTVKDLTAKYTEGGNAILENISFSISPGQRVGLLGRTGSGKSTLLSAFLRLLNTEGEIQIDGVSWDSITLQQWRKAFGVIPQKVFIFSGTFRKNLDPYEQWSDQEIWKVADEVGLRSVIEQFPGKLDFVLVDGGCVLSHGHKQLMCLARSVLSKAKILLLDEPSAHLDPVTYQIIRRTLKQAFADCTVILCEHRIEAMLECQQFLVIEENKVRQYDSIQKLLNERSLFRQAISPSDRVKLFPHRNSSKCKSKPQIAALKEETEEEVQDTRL
compound,measurement,setting,value
O=C(CNc1ccc2ccccc2c1)N/N=C/c1cc(Br)c(O)c(Br)c1O [GlyH-101],inhibition of CFTR after crofelemer pre-treatment,,~100%
same,IC50 in absence versus presence of crofelemer,,similar
same,IC50,"CFTR activated by CPT-cAMP, basolateral membrane permeabilized, Cl− gradient, inhibitor in apical solution, read-out: apparent IC50 for inhibition of CFTR Cl− current",~8 µM
CFTRinh-172,inhibition of CFTR after crofelemer pre-treatment,,~100%
same,IC50 in absence versus presence of crofelemer,,similar
